Laboratory results reported in patent publication US5491072A, “N-alkylacridan carboxyl derivatives useful for chemiluminescent detection” (Lumigen, Inc., priority 1993, dated 1996).

Key:
human transferrin = assay: Chemiluminescent detection of proteins by Western blot
From the text: To determine the sensitivity of reagents of the present invention for detection of proteins by Western blotting, a model system of transferrin was used to provide polypeptide bands in known quantities.
Rabbit anti-goat IgG-peroxidase conjugate and rabbit anti-goat IgG-peroxidase were obtained from Cappel Products (Durham, N.C.). Human transferrin and fractionated goat anti-human transferrin serum were purchased from Sigma Chemical Co. (St. Louis, Mo.)). The IgG sample was centrifuged at 10,000 g for two minutes and the supernatant was used in the immunological reaction. Immobilon™-P transfer membrane was obtained from Millipore Corp. (Bedford, Mass.). Kodak (Rochester, N.Y.) X-OMAT AR and OMC films were used in the assay procedure.
SDS-PAGE was performed utilizing the buffer system described by Laemmli (U. K. Laemmli, Nature (London), 227, 680 (1970)). The stacking gel was 4.38% acrylamide: 0.12% bisacrylamide. The separating gel was 6.81% acrylamide: 0.19% bisacrylamide. Following electrophoresis the gel was equilibrated for 7-8 minutes with the transfer buffer which contained 20 mM Tris, 153 mMglycine and 20% (v/v) methanol. The gel, sandwiched between a sheet of transfer membrane and a sheet of chromatography paper 3MM (Whatman), was placed in the transfer unit (Bio-Rad Laboratories, Richmond, Calif.). […]

horseradish peroxidase = target: T1, horseradish peroxidase (Armoracia rusticana, UniProt P00433); assay: Sensitivity of detection of horseradish peroxidase using 1b and hydrogen peroxide; assay type: biochemical; settings: 1b 46 μmol/L, 0.2 mmol/L hydrogen peroxide, 37° C.; for linear assay range for HRP: pH 8.0 tris
T1 sequence (P00433 31-338 limits assumed): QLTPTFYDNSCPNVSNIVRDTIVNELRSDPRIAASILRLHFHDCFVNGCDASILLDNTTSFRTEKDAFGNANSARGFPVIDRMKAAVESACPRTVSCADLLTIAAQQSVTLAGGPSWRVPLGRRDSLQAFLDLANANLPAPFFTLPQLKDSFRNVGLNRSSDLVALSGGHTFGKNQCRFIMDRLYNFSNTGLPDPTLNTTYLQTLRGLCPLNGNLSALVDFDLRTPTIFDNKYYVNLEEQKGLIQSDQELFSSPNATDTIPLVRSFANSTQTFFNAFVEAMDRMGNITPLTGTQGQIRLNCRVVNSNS
Procedure: The experiments in the following examples were performed using a Turner Designs TD-20e luminometer fitted with neutral density filter for light attenuation. Data collection, analysis and display were software controlled. Constant temperature was maintained by means of an external circulating water bath connected to the luminometer.
A matrix optimization experiment was done using 1b (0.1 mM-0.05 mM), hydrogen peroxide (4.4 mM-44 μM), HRP (9×10^-19 mol-1.4×10^-12 mol) at 37° C. The final assay reagent consists of 2.25×10^-3 M p-iodophenol, 0.5% Tween 20 and 1×10^-3 M EDTA in pH 8.0, 0.1M tris buffer. The best compromise between sensitivity and dynamic range was obtained using 1b (46 μmol/L) and 0.2 mmol/L hydrogen peroxide. These conditions gave a linear assay for HRP in the range of 9×10^-19 to 1.4×10^-14 mol (detection limit S/B=1.4 after 5 min with 9×10^-19 mol) or in the range of 9×10^-19 to 1.4×10^-15 mol (detection limit S/B=2 after 15 min with 9×10^-19 mol).
FIGS. 2A to 2C show the correlation of corrected signal to background vs. amount of HRP using solutions containing 0.05 mM 1b, 0.5% Tween 20, 1×10^-3 M EDTA in pH 8.0, 0.1M tris buffer.

With `CN1c2ccccc2C(C(=O)Oc2ccc(O)cc2)c2ccccc21` [Compound 1b, 4'-Hydroxyphenyl 10-methylacridan-9-carboxylate] the “duration of detectable chemiluminescence on membrane (X-ray film)” value (human transferrin; HRP-conjugate on membrane, Western blot) was “at least three hours”, the “transferrin standards clearly visible down to” value (human transferrin; detection reagent with 5 × 10^-5 M 1b and NaBO3, 7 sec exposure X-OMAT AR film or 30 second exposure OMC film) was 20 pg/slot and the “linear assay range for HRP” value (horseradish peroxidase; after 5 min) was 9e-19 to 1.4e-14 mol. For the same molecule, the “linear assay range for HRP” value (horseradish peroxidase; after 15 min) was 9e-19 to 1.4e-15 mol, the “detection limit S/B” value (horseradish peroxidase; after 5 min with 9×10^-19 mol HRP) was 1.4 and the “detection limit S/B” value (horseradish peroxidase; after 15 min with 9×10^-19 mol HRP) was 2.
